Experimental findings from patent US12209086B2, “FGFR3 inhibitor compounds” (ELI LILLY AND COMPANY, priority 2021, dated 2025) are described below.

The target in the test is T1, FGFR3 protein (Homo sapiens, UniProt P22607).
T1 construct: purchased Reaction Biology 1068
Nature of the test: FGFR3 enzyme assay (KinEASE-TK HTRF kinase assay). Format: biochemical. As to conditions: 0.25 nM enzyme, ATP at Km, 15 min pre-incubation on ice, 30 min at 30° C. On the procedure:
FGFR3 and FGFR1 Enzyme Assay
Enzyme activity was monitored using the KinEASE™-TK Assay Kit (Cisflio, Cat. No. 62TK0PEC) according to the manufacturer's instructions. All assays were performed at the respective KmATP for each kinase in KinEASE™ Kinase Buffer.
Titration of compounds were performed in a half-log manner in 100% dimethyl sulfoxide (DMSO) starting at 1 uM. Prior to the initiation of the reaction by adenosine triphosphate (ATP), FGFR1 protein and compounds were pre-incubated for 15 minutes at room temperature, and FGFR3 protein and compounds were pre-incubated on ice for 15 minutes. Reactions proceeded for 30 min at 30° C. Plates were quenched by the addition of the Anti-TK cryptate antibody/Streptavidin-XL665 mixture.
Ratios were converted to a percent of control (POC) using a ratiometric emission factor. One hundred POC was determined using no test compound, and 0 POC was determined in the presence of 1 uM of an appropriate control inhibitor.
Background: TR-FRET usually uses a lanthanide donor and a delayed reading to cut background.

T1 sequence (P22607 23-806): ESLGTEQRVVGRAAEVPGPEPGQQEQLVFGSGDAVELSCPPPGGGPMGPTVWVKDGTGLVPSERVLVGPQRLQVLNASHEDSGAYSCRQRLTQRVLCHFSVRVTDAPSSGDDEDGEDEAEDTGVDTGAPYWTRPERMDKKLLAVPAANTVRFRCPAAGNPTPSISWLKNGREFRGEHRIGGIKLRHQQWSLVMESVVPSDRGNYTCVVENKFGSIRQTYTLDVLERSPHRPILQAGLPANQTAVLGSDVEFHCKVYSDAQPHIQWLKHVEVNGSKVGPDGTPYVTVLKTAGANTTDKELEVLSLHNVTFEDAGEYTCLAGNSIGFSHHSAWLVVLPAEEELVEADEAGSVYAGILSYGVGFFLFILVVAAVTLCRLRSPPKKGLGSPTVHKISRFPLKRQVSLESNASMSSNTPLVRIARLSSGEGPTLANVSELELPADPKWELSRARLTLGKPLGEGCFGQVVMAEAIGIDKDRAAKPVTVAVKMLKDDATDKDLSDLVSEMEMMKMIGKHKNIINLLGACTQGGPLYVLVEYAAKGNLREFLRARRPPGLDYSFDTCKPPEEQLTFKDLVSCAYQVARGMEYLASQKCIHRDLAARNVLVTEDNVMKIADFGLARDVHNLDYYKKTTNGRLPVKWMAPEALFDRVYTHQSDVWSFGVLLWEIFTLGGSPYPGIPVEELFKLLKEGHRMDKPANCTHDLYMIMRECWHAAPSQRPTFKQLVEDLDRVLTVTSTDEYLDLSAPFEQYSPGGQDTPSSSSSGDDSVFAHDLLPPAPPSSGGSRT

The term IC50 denotes the point on the concentration scale where inhibition reaches its midpoint. Read a high IC50 as weaker potency in that assay. Regarding `COc1cc(-c2cnn(C3CCN(C4CN(C#N)C4)CC3)c2C)cn2ncc(C#N)c12` [Example 228, 3-[4-(4-[3-Cyano-4-methoxypyrazolo[1,5-a]pyridin-6-yl]-5-methylpyrazol-1-yl)piperidin-1-yl]azetidine-1-carbonitrile], the IC50 was below 0.05 µM.

As for `Cc1c(-c2cc(O[C@H](C)C3CCOCC3)c3c(C#N)cnn3c2)cnn1C1CCN(C#N)CC1` [Example 245, 4-(4-[3-Cyano-4-[(1R)-1-(oxan-4-yl)ethoxy]pyrazolo [1,5-a]pyridin-6-yl]-5-methylpyrazol-1-yl)piperidine-1-carbonitrile], the IC50 is below 0.05 µM.

Consider `Cc1c(-c2cc(OC(C)c3cccc4cnsc34)c3c(C#N)cnn3c2)nnn1C1CCN(C#N)CC1` (single isomer, unassigned; isomer 1) [Example 79, 4-[1-(1,2-benzothiazol-7-yl)ethoxy]-6-[1-(1-cyano-4-piperidyl)-5-methyl-triazol-4-yl]pyrazolo[1,5-a]pyridine-3-carbonitrile, Isomer 1], for which the IC50 was below 0.05 µM.

`Cc1c(-c2cc(OC(CO)c3ccc(F)cn3)c3c(C#N)cnn3c2)cnn1C1CCN(C#N)CC1` (single isomer, unassigned; isomer 1) [Example 43, 6-[1-(1-Cyano-4-piperidyl)-5-methyl-pyrazol-4-yl]-4-[1-(5-fluoro-2-pyridyl)-2-hydroxy-ethoxy]pyrazolo[1,5-a]pyridine-3-carbonitrile, Isomer 1] came in with an IC50 below 0.05 µM.

`Cc1c(-c2cc(O[C@H](C)c3ccccn3)n3c(C#N)cnc3c2)cnn1C1CN(C2CC3CCC2N3C#N)C1` (stereo partly drawn) [Example 226, 7-[1-[1-(7-Cyano-7-azabicyclo[2.2.1]heptan-2-yl)azetidin-3-yl]-5-methyl-pyrazol-4-yl]-5-[(1R)-1-(2-pyridyl)ethoxy]imidazo [1,2-a]pyridine-3-carbonitrile] displayed an IC50 below 0.05 µM.

In turn, `COc1cc(-c2cnn(C3CN(C4CC5CC(C4)N(C#N)C5)C3)c2C)cn2ncc(C#N)c12` (centres unmarked) [Example 225, 6-(1-(1-(6-cyano-6-azabicyclo[3.2.1]octan-3-yl)azetidin-3-yl)-5-methyl-1H-pyrazol-4-yl)-4-methoxypyrazolo[1,5-a]pyridine-3-carbonitrile] came in with an IC50 below 0.1 µM.

For `Cc1c(-c2cc(OCC(O)c3ccc(F)cn3)c3c(Cl)cnn3c2)nnn1C1CCN(C#N)CC1` (single isomer, unassigned) [Example 154, 4-[4-[3-Chloro-4-[2-(5-fluoro-2-pyridyl)-2-hydroxy-ethoxy]pyrazolo[1,5-a]pyridin-6-yl]-5-methyl-triazol-1-yl]piperidine-1-carbonitrile], the IC50 was below 0.05 µM.

`Cc1c(-c2cc(OC(C)c3cc(Cl)cnn3)c3c(C#N)cnn3c2)nnn1C1CCN(C#N)CC1` (single isomer, unassigned; isomer 1) [Example 68, 4-[1-(5-Chloropyridazin-3-yl)ethoxy]-6-[1-(1-cyano-4-piperidyl)-5-methyl-triazol-4-yl]pyrazolo[1,5-a]pyridine-3-carbonitrile, Isomer 1] gave an IC50 below 0.05 µM.

`Cc1c(-c2cc(OC(CO)c3ccc(F)cn3)n3c(C#N)cnc3c2)nnn1C1CCN(C#N)CC1` (single isomer, unassigned; isomer 1) [Example 63, 7-[1-(1-Cyano-4-piperidyl)-5-methyl-triazol-4-yl]-5-[1-(5-fluoro-2-pyridyl)-2-hydroxy-ethoxy]imidazo[1,2-a]pyridine-3-carbonitrile, Isomer 1] gave an IC50 below 0.05 µM.

The compound `Cc1c(-c2cc(O[C@H](C)c3ccc(F)cn3)n3c(C#N)cnc3c2)cnn1C1CCN(C#N)CC1` [Example 209] gave an IC50 below 0.05 µM.

Regarding `Cc1c(-c2cc(O[C@H](C)c3ccccn3)n3c(Cl)cnc3c2)nnn1C1CN(C2CCN(C#N)CC2)C1` [Example 233, 4-[3-[4-[3-Chloro-5-[(1R)-1-(2-pyridyl)ethoxy]imidazo[1,2-a]pyridin-7-yl]-5-methyl-triazol-1-yl]azetidin-1-yl]piperidine-1-carbonitrile], the half-maximal inhibitory concentration (IC50) was below 0.1 µM.

`COc1cc(-c2cnn(C3CN(C4CCN(C#N)CC4(F)F)C3)c2C)cn2ncc(C#N)c12` (single isomer, unassigned) [Example 179, 4-[3-(4-[3-Cyano-4-methoxypyrazolo[1,5-a]pyridin-6-yl]-5-methylpyrazol-1-yl)azetidin-1-yl]-3,3-difluoropiperidine-1-carbonitrile] gave an IC50 below 0.05 µM.

`CCC(Oc1cc(-c2nnn(C3CCN(C#N)CC3)c2C)cc2ncc(C#N)n12)c1ccc(F)cn1` (single isomer, unassigned; isomer 1) [Example 51, 7-[1-(1-Cyano-4-piperidyl)-5-methyl-triazol-4-yl]-5-[1-(5-fluoro-2-pyridyl)propoxy]imidazo[1,2-a]pyridine-3-carbonitrile, Isomer 1] registered an IC50 below 0.05 µM.

The compound `Cc1c(-c2cc(OCC(C)(O)c3ccc(F)cn3)c3c(Cl)cnn3c2)nnn1C1CCN(C#N)CC1` (single isomer, unassigned) [Example 156, 4-[4-[3-Chloro-4-[2-(5-fluoro-2-pyridyl)-2-hydroxy-propoxy]pyrazolo[1,5-a]pyridin-6-yl]-5-methyl-triazol-1-yl]piperidine-1-carbonitrile] had an IC50 below 0.05 µM.

Compound `Cc1nc([C@@H](C)Oc2cc(-c3nnn(C4CCN(C#N)CC4)c3C)cn3ncc(C#N)c23)cs1` [Example 291, 6-[1-(1-Cyano-4-piperidyl)-5-methyl-triazol-4-yl]-4-[(1R)-1-(2-methylthiazol-4-yl)ethoxy]pyrazolo [1,5-a]pyridine-3-carbonitrile] displayed an IC50 below 0.05 µM.

In the case of `COCC(Oc1cc(-c2nnn(C3CCN(C#N)CC3)c2C)cn2ncc(C#N)c12)c1ccc(F)cn1` (single isomer, unassigned; isomer 1) [Example 53, 6-[1-(1-Cyano-4-piperidyl)-5-methyl-triazol-4-yl]-4-[1-(5-fluoro-2-pyridyl)-2-methoxy-ethoxy]pyrazolo[1,5-a]pyridine-3-carbonitrile, Isomer 1], the IC50 was below 0.05 µM.

As to `COc1cc(-c2cnn(C3CN([C@@H]4CCN(C#N)C4)C3)c2C)cn2ncc(C#N)c12` [Example 222, (3R)-3-[3-(4-[3-Cyano-4-methoxypyrazolo[1,5-a]pyridin-6-yl]-5-methylpyrazol-1-yl)azetidin-1-yl]pyrrolidine-1-carbonitrile], the IC50 was below 0.05 µM.

Take `Cc1c(-c2cc(O[C@H](C)C3CCC3)c3c(C#N)cnn3c2)cnn1C1CCN(C#N)CC1` [Example 195, 4-(4-[3-cyano-4-[(1R)-1-cyclobutylethoxy]pyrazolo[1,5-a]pyridin-6-yl]-5-methylpyrazol-1-yl)piperidine-1-carbonitrile]: the concentration for half-maximal inhibition (IC50) was below 0.05 µM.

In turn, `Cc1c(-c2cc(O[C@H](C)c3ccn(C)n3)c3c(C#N)cnn3c2)nnn1C1CCN(C#N)CC1` [Example 292, 6-[1-(1-Cyano-4-piperidyl)-5-methyl-triazol-4-yl]-4-[(1R)-1-(1-methylpyrazol-3-yl)ethoxy]pyrazolo [1,5-a]pyridine-3-carbonitrile] showed an IC50 below 0.05 µM.

Compound `Cc1c(-c2cc(OC(CO)c3ccc(F)cn3)c3c(Cl)cnn3c2)nnn1[C@H]1C[C@@H](N2CC3COCC(C2)N3C#N)C1` (single isomer, unassigned) [Example 280] gave an IC50 below 0.05 µM.
